Entries after “also recorded” stand apart in the source; their conditions may differ.
Columns and labels:
diabetic rats [1] = test: Serum cholesterol concentrations after 7 day oral treatment of diabetic rats (lovastatin, MKH, combination); format: in vivo; settings: for Effect on total cholesterol: 7 day oral dosage; for Effect on HDL levels: 7 days, MKH at 2 mg/kg
Description: This is significant as HDLs are protective against heart disease (Despres et al., 2000, Atherosclerosis 153: 263-272). […] This is important as low LDL levels are associated with decreased risk of heart disease.

normoglycaemic rats [2] = test: Serum cholesterol and lipid profile in normoglycaemic rats after 5 days treatment; format: in vivo, Wistar rats; settings: for Changes in HDL serum cholesterol concentrations / Changes in total cholesterol in serum concentrations / LDL serum cholesterol concentrations relative to control values: normoglycaemic / non-diabetic rats, 5 days treatment
Method: In this study white, adult male Wistar rats with average weights between 200 to 300 grams were used. During the study, the animals had free access to food and water and were exposed to changes of dark and light every 12 hours. Access to the food was restricted 12 hours before measurement of glucose blood level with free access to water. The experiment was performed on a normoglycaemic group (Group 1, 32 rats, 8 per treatment) and diabetic rats (Group 2, 32 rats, 8 per treatment). For the diabetic rat experiments diabetes was induced with intraperitoneal injection of alloxan 100 mg/kg. Alloxan is very well verified diabetogenic substance for inducing diabetes in rats and other animal species (rabbit, dog, mice et […]). See, for example, […]. Coil Physicians Edinb, 32: 134-142, 2002; […], Diabetologia, 31: 337-342, 1988; Shaw et al., Lancet, 11: 384-386, 1943; Goldner & Gomori, Endocrinology, 35: 241-268, 1943. 1). Saline solution, 1 ml/kg, per orally, daily for 5 days (control group); 2). Stevioside, 20 mg/kg, orally, daily for 5 days; 3). […] 15 minutes after the 5th dose, the animals were exposed to an oral glucose tolerance test (OGTT) using 4 g/kg, orally. Glucose blood concentrations were measured before the treatment, after the 5th dose, before OGTT, and 30 minutes after OGTT. Then the animals were anaesthetised with urethane injected intraperitoneally, 750 mg/kg, and blood samples for further biochemical analyses were taken by cardiopunction. All biochemical analyses of serum were done by standard procedures, as recommended by the International Federation for Clinical Chemistry (IFCC), on automatic spectrophotometer LISA 300 plus with International Quality Control. The following were measured in serum: 1). Triglycerides concentration (GPO-PAP kit obtained from Boehringer Mannheim GmbH (Mannheim, Germany) in accordance with the manufacturers instructions) 2). […] C-peptide concentration. […] Generally the desired outcome was a decrease in low density lipoprotein (LDL), with no concomitant decrease in high density lipoprotein (HDL). It was also hypothesised that there would be a compatibility with glycaemic effects shown in Example 2. The experimental procedures were essentially those described in Example 2.

diabetic Wistar rats = test: Blood glucose and OGTT in alloxan-induced diabetic rats; format: in vivo; settings: 5 days oral treatment
Method: In this study white, adult male Wistar rats with average weights between 200 to 300 grams were used. During the study, the animals had free access to food and water and were exposed to changes of dark and light every 12 hours. Access to the food was restricted 12 hours before measurement of glucose blood level with free access to water. The experiment was performed on a normoglycaemic group (Group 1, 32 rats, 8 per treatment) and diabetic rats (Group 2, 32 rats, 8 per treatment). For the diabetic rat experiments diabetes was induced with intraperitoneal injection of alloxan 100 mg/kg. Alloxan is very well verified diabetogenic substance for inducing diabetes in rats and other animal species (rabbit, dog, mice et […]). See, for example, […]. Coil Physicians Edinb, 32: 134-142, 2002; […], Diabetologia, 31: 337-342, 1988; Shaw et al., Lancet, 11: 384-386, 1943; Goldner & Gomori, Endocrinology, 35: 241-268, 1943. 1). Saline solution, 1 ml/kg, per orally, daily for 5 days (control group); 2). Stevioside, 20 mg/kg, orally, daily for 5 days; 3). […] In the diabetic rat the criterion for successful diabetes induction was blood glucose greater than 20 mmol/L on the third day after the last alloxan dose after 3 hours of fasting with free access to water. […] Glucose blood concentrations were measured before the treatment, after the 5th dose, before OGTT, and 30 minutes after OGTT. […]

normoglycaemic rats [3] = test: C peptide serum concentration in normoglycaemic rats; format: in vivo, Wistar rats; settings: non-diabetic rats; treatment for 5 days
Method: In this study white, adult male Wistar rats with average weights between 200 to 300 grams were used. During the study, the animals had free access to food and water and were exposed to changes of dark and light every 12 hours. Access to the food was restricted 12 hours before measurement of glucose blood level with free access to water. The experiment was performed on a normoglycaemic group (Group 1, 32 rats, 8 per treatment) and diabetic rats (Group 2, 32 rats, 8 per treatment). For the diabetic rat experiments diabetes was induced with intraperitoneal injection of alloxan 100 mg/kg. Alloxan is very well verified diabetogenic substance for inducing diabetes in rats and other animal species (rabbit, dog, mice et […]). See, for example, […]. Coil Physicians Edinb, 32: 134-142, 2002; […], Diabetologia, 31: 337-342, 1988; Shaw et al., Lancet, 11: 384-386, 1943; Goldner & Gomori, Endocrinology, 35: 241-268, 1943. 1). Saline solution, 1 ml/kg, per orally, daily for 5 days (control group); 2). Stevioside, 20 mg/kg, orally, daily for 5 days; 3). […] 15 minutes after the 5th dose, the animals were exposed to an oral glucose tolerance test (OGTT) using 4 g/kg, orally. Glucose blood concentrations were measured before the treatment, after the 5th dose, before OGTT, and 30 minutes after OGTT. […] The following were measured in serum: 1). […]

diabetic rats [4] = test: Serum cholesterol and lipid profile in diabetic rats after 5 days treatment; format: in vivo, Wistar rats; settings: for Effect on LDL cholesterol levels: treatment for 5 days
Method: In this study white, adult male Wistar rats with average weights between 200 to 300 grams were used. During the study, the animals had free access to food and water and were exposed to changes of dark and light every 12 hours. Access to the food was restricted 12 hours before measurement of glucose blood level with free access to water. The experiment was performed on a normoglycaemic group (Group 1, 32 rats, 8 per treatment) and diabetic rats (Group 2, 32 rats, 8 per treatment). For the diabetic rat experiments diabetes was induced with intraperitoneal injection of alloxan 100 mg/kg. Alloxan is very well verified diabetogenic substance for inducing diabetes in rats and other animal species (rabbit, dog, mice et […]). See, for example, […]. Coil Physicians Edinb, 32: 134-142, 2002; […], Diabetologia, 31: 337-342, 1988; Shaw et al., Lancet, 11: 384-386, 1943; Goldner & Gomori, Endocrinology, 35: 241-268, 1943. 1). Saline solution, 1 ml/kg, per orally, daily for 5 days (control group); 2). Stevioside, 20 mg/kg, orally, daily for 5 days; 3). […] In the diabetic rat the criterion for successful diabetes induction was blood glucose greater than 20 mmol/L on the third day after the last alloxan dose after 3 hours of fasting with free access to water. 15 minutes after the 5th dose, the animals were exposed to an oral glucose tolerance test (OGTT) using 4 g/kg, orally. Glucose blood concentrations were measured before the treatment, after the 5th dose, before OGTT, and 30 minutes after OGTT. Then the animals were anaesthetised with urethane injected intraperitoneally, 750 mg/kg, and blood samples for further biochemical analyses were taken by cardiopunction. All biochemical analyses of serum were done by standard procedures, as recommended by the International Federation for Clinical Chemistry (IFCC), on automatic spectrophotometer LISA 300 plus with International Quality Control. The following were measured in serum: 1). Triglycerides concentration (GPO-PAP kit obtained from Boehringer Mannheim GmbH (Mannheim, Germany) in accordance with the manufacturers instructions) 2). […] C-peptide concentration. […] Generally the desired outcome was a decrease in low density lipoprotein (LDL), with no concomitant decrease in high density lipoprotein (HDL). It was also hypothesised that there would be a compatibility with glycaemic effects shown in Example 2. The experimental procedures were essentially those described in Example 2.

diabetic rats [5] = test: C peptide serum concentration in diabetic rats; format: in vivo, Wistar rats; settings: treatment for 5 days
Method: In this study white, adult male Wistar rats with average weights between 200 to 300 grams were used. During the study, the animals had free access to food and water and were exposed to changes of dark and light every 12 hours. Access to the food was restricted 12 hours before measurement of glucose blood level with free access to water. The experiment was performed on a normoglycaemic group (Group 1, 32 rats, 8 per treatment) and diabetic rats (Group 2, 32 rats, 8 per treatment). For the diabetic rat experiments diabetes was induced with intraperitoneal injection of alloxan 100 mg/kg. Alloxan is very well verified diabetogenic substance for inducing diabetes in rats and other animal species (rabbit, dog, mice et […]). See, for example, […]. Coil Physicians Edinb, 32: 134-142, 2002; […], Diabetologia, 31: 337-342, 1988; Shaw et al., Lancet, 11: 384-386, 1943; Goldner & Gomori, Endocrinology, 35: 241-268, 1943. 1). Saline solution, 1 ml/kg, per orally, daily for 5 days (control group); 2). Stevioside, 20 mg/kg, orally, daily for 5 days; 3). […] Glucose blood concentrations were measured before the treatment, after the 5th dose, before OGTT, and 30 minutes after OGTT. […] The following were measured in serum: 1). […]

SMILES | Effect on total cholesterol (diabetic rats [1]) | Effect on HDL levels (diabetic rats [1]; Lovastatin 20 mg/kg) | Changes in HDL serum cholesterol concentrations (normoglycaemic rats [2]) | Changes in total cholesterol in serum concentrations (normoglycaemic rats [2]) | LDL serum cholesterol concentrations relative to control values (normoglycaemic rats [2]) | LDL: HDL Ratio (ratios of means) (normoglycaemic rats [2]; normoglycaemic rats, n = 8, after 5 days treatment) | Effect on glucose levels both before and after the OGTT (diabetic Wistar rats) | Effect on C peptide levels (normoglycaemic rats [3]) | Changes in total cholesterol in serum concentrations (diabetic rats [4]; 5 days treatment) | Effect on LDL:HDL ratio (diabetic rats [4]; 5 days treatment) | Effect on HDL levels (diabetic rats [4]; 5 days, MKH at 4 mg/kg) | LDL: HDL Ratio (ratios of means) (diabetic rats [4]; n = 8, after 5 days treatment) | Effect on LDL cholesterol levels (diabetic rats [4]) | Effect on LDL levels (diabetic rats [1]; 7 days oral treatment, MKH 2 mg/kg, Lovastatin 20 mg/kg) | Effect on LDL:HDL ratio (diabetic rats [1]; by Day 7) | Effect on C-peptide (diabetic rats [5])
CC[C@H](C)C(=O)O[C@H]1C[C@@H](C)C=C2C=C[C@H](C)[C@H](CC[C@@H]3C[C@@H](O)CC(=O)O3)[C@H]21 [Lovastatin, reference compound] | reduced total cholesterol by a similar amount | reduced HDLs significantly | – | – | – | – | – | – | – | – | – | – | – | – | – | –
C[C@H](CCC(=O)O)[C@H]1CC[C@H]2[C@@H]3[C@H](O)C[C@@H]4C[C@H](O)CC[C@]4(C)[C@H]3CC(=O)[C@]12C [MKH, 3α,7α-dihydroxy-12-oxo-5β-cholanate] | reduced total cholesterol by a similar amount | this effect was not observed; also recorded: did not do so | no significant changes | no significant changes | significantly decreased (one third of control values) | 0.01 | significant decrease in glucose levels | Neither stevioside or 3α,7α-dihydroxy-12-oxo-5β-cholanate alone had statistically significant effects | no significant changes | slight increase in LDL:HDL ratio | A decrease was observed | 1.12 | decreases in LDL levels and while these were not statistically significant | very highly significant decrease in LDL levels; also recorded: significantly greater than that achieved by Lovastatin | significant decrease in the LDL:HDL ratio | –
C=C1C[C@@]23CC[C@H]4[C@@](C)(CCC[C@@]4(C)C(=O)O[C@@H]4O[C@H](CO)[C@@H](O)[C@H](O)[C@H]4O)[C@@H]2CC[C@]1(O[C@@H]1O[C@H](CO)[C@@H](O)[C@H](O)[C@H]1O[C@@H]1O[C@H](CO)[C@@H](O)[C@H](O)[C@H]1O)C3 [Stevioside, stevioside] | – | – | no significant changes | no significant changes | significantly decreased (one third of control values) | – | – | Neither stevioside or 3α,7α-dihydroxy-12-oxo-5β-cholanate alone had statistically significant effects | no significant changes | – | – | – | highly significant decrease in LDL cholesterol levels | – | – | significant increases in C-peptide

From patent publication US20090232913A1, “Composition for the Control of Cholesterol Levels” (priority 2005, published 2009)
